The values below come from patent US20240270741A1 (Cogent Biosciences, Inc., priority 2023, published 2024).

In general, IC50 refers to the concentration that gives 50% inhibition. A lower IC50 goes with higher potency.

In one assay the target is FGFR2 (Homo sapiens, UniProt P21802). Kind of assay: FGFR wild type enzyme assay (HTRF KinEASE-TK), FGFR2. The settings on record: Enz FGFR2 (nM).
Chain of FGFR2 (P21802 399-821 limits assumed): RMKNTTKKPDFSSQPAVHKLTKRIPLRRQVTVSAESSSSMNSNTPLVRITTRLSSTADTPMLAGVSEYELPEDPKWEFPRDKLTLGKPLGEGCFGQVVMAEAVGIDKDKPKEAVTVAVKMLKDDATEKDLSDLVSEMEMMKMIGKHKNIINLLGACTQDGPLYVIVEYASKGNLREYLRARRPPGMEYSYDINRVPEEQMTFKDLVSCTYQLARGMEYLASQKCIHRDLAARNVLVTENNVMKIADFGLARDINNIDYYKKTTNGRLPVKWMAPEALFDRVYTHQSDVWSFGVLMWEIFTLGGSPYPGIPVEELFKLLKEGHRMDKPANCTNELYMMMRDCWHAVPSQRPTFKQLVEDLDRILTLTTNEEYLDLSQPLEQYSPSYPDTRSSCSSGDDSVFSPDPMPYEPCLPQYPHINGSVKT
With `N#Cc1ccccc1Sc1cc(-c2cnn(C3CCNCC3)c2)cn2ncc(C#N)c12` [Example 62, 4-((2-cyanophenyl)thio)-6-(1-(piperidin-4-yl)-1H-pyrazol-4-yl)pyrazolo[1,5-a]pyridine-3-carbonitrile], the IC50 is 0.3 nM. This lies in the sub-nanomolar range.

In the case of `Cc1c(-c2cc(Sc3ncccc3F)c3c(C#N)cnn3c2)cnn1[C@H]1CCNC1` [Example 103], the IC50 came out at 4 nM.

Molecule `CC(C)OC[C@@H](C)Sc1cc(-c2cnn([C@H]3CCCNC3)c2)cn2ncc(C#N)c12` [Example 79, 4-[(1R)-2-isopropoxy-1-methyl-ethyl]sulfanyl-6-[1-[(3S)-3-piperidyl]pyrazol-4-yl]pyrazolo[1,5-a]pyridine-3-carbonitrile] came in with an IC50 of 2 nM.

The assay is the same for the next values; noted with them: Enz FGFR2 (nM), FGFR2 wild type enzyme.
`Cc1c(-c2cc(Sc3ccccn3)c3c(C#N)cnn3c2)cnn1[C@H]1CC[C@@H](O)CC1` [Example 302] yielded an IC50 of 4 nM. This lies in the single-digit nanomolar range.

The molecule `Cc1c(-c2cc(Sc3ncccc3F)c3c(C#N)cnn3c2)cnn1C1CCN(C(=O)C(C)(C)N(C)C)CC1` [Example 213, 6-(1-(1-(2-(dimethylamino)-2-methylpropanoyl)piperidin-4-yl)-5-methyl-1H-pyrazol-4-yl)-4-((3-fluoropyridin-2-yl)thio)pyrazolo[1,5-a]pyridine-3-carbonitrile] gave an IC50 of 1.6 nM.

Consider `Cc1c(-c2cc(Sc3ncccc3F)c3c(C#N)cnn3c2)cnn1[C@H]1CCCN(C(=O)CO)C1` [Example 167, (S)-4-((3-fluoropyridin-2-yl)thio)-6-(1-(1-(2-hydroxyacetyl)piperidin-3-yl)-5-methyl-1H-pyrazol-4-yl)pyrazolo[1,5-a]pyridine-3-carbonitrile], for which the IC50 was 2 nM.

Consider `Cc1nn([C@H]2CC[C@@H](O)CC2)cc1-c1cc(Sc2ncccc2F)c2c(C#N)cnn2c1` [Example 312, 4-((3-fluoropyridin-2-yl)thio)-6-(1-((1s,4s)-4-hydroxycyclohexyl)-3-methyl-1H-pyrazol-4-yl)pyrazolo[1,5-a]pyridine-3-carbonitrile], for which inhibition was half-maximal at 1.5 nM (IC50).

For the molecule `CC(=O)N[C@H]1CC[C@H](n2ncc(-c3cc(Sc4ccc(F)cc4C#N)c4c(C#N)cnn4c3)c2C)CC1` [Example 274, N-((1r,4r)-4-(4-(3-cyano-4-((2-cyano-4-fluorophenyl)thio)pyrazolo [1,5-a]pyridin-6-yl)-5-methyl-1H-pyrazol-1-yl)cyclohexyl)acetamide], the IC50 worked out at 1 nM.

As to `CC(=O)N1CC2(CC(n3ncc(-c4cc(Sc5ncccc5F)c5c(C#N)cnn5c4)c3C)C2)C1` [Example 210, 6-(1-(2-acetyl-2-azaspiro[3.3]heptan-6-yl)-5-methyl-1H-pyrazol-4-yl)-4-((3-fluoropyridin-2-yl)thio)pyrazolo[1,5-a]pyridine-3-carbonitrile], the IC50 is 2 nM.

`CC(=O)N1CCC2(CC1)CC(n1ncc(-c3cc(Sc4ncccc4F)c4c(C#N)cnn4c3)c1C)C2` [Example 176, 6-(1-(7-acetyl-7-azaspiro[3.5]nonan-2-yl)-5-methyl-1H-pyrazol-4-yl)-4-((3-fluoropyridin-2-yl)thio)pyrazolo[1,5-a]pyridine-3-carbonitrile]: the IC50 is 1.5 nM.

The assay is the same for the next values; noted with them: Enz FGFR2 (nM), FGFR2 wild type enzyme assay.
`CC(=O)N1CCC(n2nc(C)c(-c3cc(Sc4ncccc4F)c4c(C#N)cnn4c3)c2F)CC1` [Example 454, 6-(1-(1-acetylpiperidin-4-yl)-5-fluoro-3-methyl-1H-pyrazol-4-yl)-4-((3-fluoropyridin-2-yl)thio)pyrazolo[1,5-a]pyridine-3-carbonitrile] returned an IC50 of 12 nM. This counts as double-digit nanomolar.

In the case of `Cc1c(-c2cc(Sc3ccc(F)cc3C#N)c3c(C#N)cnn3c2)cnn1C1CCOCC1` [Example 666, 4-((2-cyano-4-fluorophenyl)thio)-6-(5-methyl-1-(tetrahydro-2H-pyran-4-yl)-1H-pyrazol-4-y)pyrazolo[1,5-a]pyridine-3-carbonitrile], the IC50 was determined as 0.6 nM.

`C[C@]1(O)CC[C@@H](n2cc(-c3cc(Sc4ccc(F)cc4C#N)c4c(C#N)cnn4c3)cn2)CC1` [Example 500, 4-((2-cyano-4-fluorophenyl)thio)-6-(1-((1s,4s)-4-hydroxy-4-methylcyclohexyl)-1H-pyrazol-4-yl)pyrazolo[1,5-a]pyridine-3-carbonitrile] registered an IC50 of 1 nM.

Turning to `CN1CCC(n2cc(-c3cc(Sc4ncccc4F)c4c(C#N)cnn4c3)nn2)CC1` [Example 430, 4-((3-fluoropyridin-2-yl)thio)-6-(1-(1-methylpiperidin-4-yl)-1H-1,2,3-triazol-4-yl)pyrazolo[1,5-a]pyridine-3-carbonitrile], the IC50 came out at 10 nM.

The molecule `CC(=O)N1CCC(n2ncc(-c3cc(Sc4ncccc4F)c4c(C#N)cnn4c3)c2F)CC1` [Example 397, 6-(1-(1-acetylpiperidin-4-yl)-5-fluoro-1H-pyrazol-4-yl)-4-((3-fluoropyridin-2-yl)thio)pyrazolo[1,5-a]pyridine-3-carbonitrile] registered an IC50 of 5 nM. This IC50 is about 2-fold lower than that of the molecule before.

Turning to `CC(=O)N[C@@H]1CC[C@@H](n2cc(-c3cc(Sc4ccccc4C#N)c4c(C#N)cnn4c3)cn2)C1` [Example 368, N-((1R,3R)-3-(4-(3-cyano-4-((2-cyanophenyl)thio)pyrazolo [1,5-a]pyridin-6-yl)-1H-pyrazol-1-yl)cyclopentyl)acetamide], inhibition was half-maximal at 0.4 nM (IC50).

Molecule `CN1CCC(n2ncc(-c3cc(Sc4ccccc4C#N)c4c(C#N)cnn4c3)c2Cl)CC1` [Example 396, 6-(5-chloro-1-(1-methylpiperidin-4-yl)-1H-pyrazol-4-yl)-4-((2-cyanophenyl)thio)pyrazolo [1,5-a]pyridine-3-carbonitrile] yielded an IC50 of 1 nM. This IC50 is about 2.5-fold higher than that of the molecule before.

The molecule `N#Cc1ccccc1Sc1cc(-c2cnn([C@H]3CCNC3)c2)cn2ncc(C#N)c12` [Example 427, (S)-4-((2-cyanophenyl)thio)-6-(1-(pyrrolidin-3-yl)-1H-pyrazol-4-yl)pyrazolo[1,5-a]pyridine-3-carbonitrile] yielded an IC50 of 0.4 nM.

The molecule `Cc1nc(Sc2cc(-c3cnn(C)c3)cn3ncc(C#N)c23)c(F)cc1F` [Example 615, 4-((3,5-difluoro-6-methylpyridin-2-yl)thio)-6-(1-methyl-1H-pyrazol-4-yl)pyrazolo[1,5-a]pyridine-3-carbonitrile] returned an IC50 of 2 nM. This IC50 is about 5-fold higher than that of the molecule before.

For the molecule `CC(=O)N[C@H]1CC[C@@H](n2ncc(-c3cc(Sc4nc(N)ccc4F)c4c(C#N)cnn4c3)c2C)CC1` [Example 383, N-((1s,4s)-4-(4-(4-((6-amino-3-fluoropyridin-2-yl)thio)-3-cyanopyrazolo[1,5-a]pyridin-6-yl)-5-methyl-1H-pyrazol-1-yl)cyclohexyl)acetamide], 1 nM corresponded to half-maximal inhibition (IC50).

For the molecule `CC(C)n1cc(-c2cc(Sc3ccccc3C#N)c3c(C#N)cnn3c2)cn1` [Example 452, 4-((2-cyanophenyl)thio)-6-(1-isopropyl-1H-pyrazol-4-yl)pyrazolo[1,5-a]pyridine-3-carbonitrile], the IC50 amounted to 0.6 nM.

The molecule `N#Cc1ccccc1Sc1cc(-c2cnn(CC(=O)N3CC[C@@H](O)C3)c2)cn2ncc(C#N)c12` [Example 652, (R)-4-((2-cyanophenyl)thio)-6-(1-(2-(3-hydroxypyrrolidin-1-yl)-2-oxoethyl)-1H-pyrazol-4-yl)pyrazolo[1,5-a]pyridine-3-carbonitrile] came in with an IC50 of 1 nM.

`N#Cc1cnn2cc(-c3cnn(C[C@H](O)CO)c3)cc(Sc3ncccc3F)c12` [Example 523, (S)-6-(1-(2,3-dihydroxypropyl)-1H-pyrazol-4-yl)-4-((3-fluoropyridin-2-yl)thio)pyrazolo[1,5-a]pyridine-3-carbonitrile] yielded an IC50 of 2 nM.

For the molecule `Cc1nn([C@H]2CCCNC2)cc1-c1cc(Sc2ccc(F)cc2C#N)c2c(C#N)cnn2c1` [Example 414, (S)-4-((2-cyano-4-fluorophenyl)thio)-6-(3-methyl-1-(piperidin-3-yl)-1H-pyrazol-4-yl)pyrazolo[1,5-a]pyridine-3-carbonitrile], the IC50 was determined as 7 nM.

In the case of `Cc1c(-c2cc(Sc3ccccc3C#N)c3c(C#N)cnn3c2)cnn1C` [Example 614, 4-((2-cyanophenyl)thio)-6-(1,5-dimethyl-1H-pyrazol-4-yl)pyrazolo[1,5-a]pyridine-3-carbonitrile], the IC50 came out at 9 nM.

Molecule `Cc1c(-c2cc(Sc3ccc(F)cc3C#N)c3c(C#N)cnn3c2)cnn1[C@H]1CCN(C)C(C)(C)C1` [Example 387, (S)-4-((2-cyano-4-fluorophenyl)thio)-6-(5-methyl-1-(1,2,2-trimethylpiperidin-4-yl)-1H-pyrazol-4-yl)pyrazolo[1,5-a]pyridine-3-carbonitrile] registered an IC50 of 1 nM.

Regarding `CN1CCC(n2ncc(-c3cc(Sc4ncccc4F)c4c(C#N)cnn4c3)c2C#N)CC1` [Example 370, 6-(5-cyano-1-(1-methylpiperidin-4-yl)-1H-pyrazol-4-yl)-4-((3-fluoropyridin-2-yl)thio)pyrazolo[1,5-a]pyridine-3-carbonitrile], half-maximal inhibition (IC50) required 35 nM.

`N#Cc1ccccc1Sc1cc(-c2cnn([C@H]3CCN(C(=O)CO)C3)c2)cn2ncc(C#N)c12` [Example 484, (S)-4-((2-cyanophenyl)thio)-6-(1-(1-(2-hydroxyacetyl)pyrrolidin-3-yl)-1H-pyrazol-4-yl)pyrazolo[1,5-a]pyridine-3-carbonitrile]: half-maximal inhibition (IC50) required 0.4 nM.

Molecule `CC(=O)N[C@H]1CC[C@@H](n2ncc(-c3cc(Sc4nc(C)c(F)cc4F)c4c(C#N)cnn4c3)c2C)CC1` [Example 488, N-((1s,4s)-4-(4-(3-cyano-4-((3,5-difluoro-6-methylpyridin-2-yl)thio)pyrazolo[1,5-a]pyridin-6-yl)-5-methyl-1H-pyrazol-1-yl)cyclohexyl)acetamide] came in with an IC50 of 1 nM.

Molecule `CC1(C)C[C@@H](n2cc(-c3cc(Sc4ncccc4F)c4c(C#N)cnn4c3)cn2)CN1` [Example 473, (R)-6-(1-(5,5-dimethylpyrrolidin-3-yl)-1H-pyrazol-4-yl)-4-((3-fluoropyridin-2-yl)thio)pyrazolo[1,5-a]pyridine-3-carbonitrile] had an IC50 of 1 nM.

`CN(c1ccc(-c2cc(Sc3ccccc3C#N)c3c(C#N)cnn3c2)cn1)C1CCCNC1` (stereo not shown) [Example 407, 4-(2-cyanophenyl)sulfanyl-6-[6-[methyl(3-piperidyl)amino]-3-pyridyl]pyrazolo[1,5-a]pyridine-3-carbonitrile] displayed an IC50 of 0.2 nM.
